# Measured values reported in patent US12721810B2, “Aqueous ophthalmic solutions of phentolamine and medical uses thereof” (Opus Genetics, Inc., priority 2013, dated 2026).
# Where a name gives a salt, the structure may show the parent alone.
# Experiment: Stability on storage: HPLC assay for API, impurities and degradants (Examples 1-4)
# Assay type: physicochemical
# Settings: period of 4 weeks, 2-8° C. to 60° C.
# Procedure: (§1) The injection volume was 10 μL.
# as §1
compound,measurement,value
Cc1ccc(N(CC2=NCCN2)c2cccc(O)c2)cc1 [phentolamine mesylate],stability in water,degrades rapidly
